This passage reports MIC results from ChEMBL document CHEMBL1275589, “Molecular epidemiology, sequence types, and plasmid analyses of KPC-producing Klebsiella pneumoniae strains in Israel” (2010).

The test system of experiment [1] is Klebsiella pneumoniae. Kind of experiment: Antimicrobial activity against carbapenem-resistant KPC-2 producing Klebsiella pneumoniae 526 ST 376 expressing beta-lactamase SHV-1 by agar dilution method in presence of beta-lactamase inhibitor Tazobactam. The format is functional.
Another experiment has as its system Escherichia coli. Kind of experiment: Antimicrobial activity against Escherichia coli Genehogs by agar dilution method in presence of beta-lactamase inhibitor Tazobactam. In kind it is functional.
The test system of experiment [2] is Klebsiella pneumoniae. Nature of the experiment: Antimicrobial activity against carbapenem-resistant KPC-2 producing Klebsiella pneumoniae 526 transformant by agar dilution method in presence of beta-lactamase inhibitor Tazobactam. The format is functional.
The test system of experiment [3] is Klebsiella pneumoniae. Kind of experiment: Antimicrobial activity against carbapenem-resistant KPC-2 producing Klebsiella pneumoniae 365 transformant by agar dilution method in presence of beta-lactamase inhibitor Tazobactam. The format is functional.
In experiment [4] the test system is Klebsiella pneumoniae. Nature of the experiment: Antimicrobial activity against KPC-3 producing Klebsiella pneumoniae 549 transformant by agar dilution method in presence of beta-lactamase inhibitor Tazobactam. In kind it is functional.
The test system of experiment [5] is Klebsiella pneumoniae. Kind of experiment: Antimicrobial activity against carbapenem-resistant KPC-2 producing Klebsiella pneumoniae 523 ST 340 expressing beta-lactamase TEM-1, SHV-11 and OXA-2 by agar dilution method in presence of beta-lactamase inhibitor Tazobactam. The format is functional.
Experiment [6] concerns Klebsiella pneumoniae. Nature of the experiment: Antimicrobial activity against carbapenem-resistant KPC-2 producing Klebsiella pneumoniae 469 transformant by agar dilution method in presence of beta-lactamase inhibitor Tazobactam. In kind it is functional.
The subject of experiment [7] is Klebsiella pneumoniae. Kind of experiment: Antimicrobial activity against carbapenem-resistant KPC-2 producing Klebsiella pneumoniae 525 ST 376 expressing beta-lactamase SHV-1 by agar dilution method in presence of beta-lactamase inhibitor Tazobactam. The format is functional.
The subject of experiment [8] is Klebsiella pneumoniae. Kind of experiment: Antimicrobial activity against carbapenem-resistant KPC-2 producing Klebsiella pneumoniae 469 ST 277 expressing beta-lactamase SHV-27, CTX-M-15 and OXA-4 by agar dilution method in presence of beta-lactamase inhibitor Tazobactam. In kind it is functional.
The test system of experiment [9] is Klebsiella pneumoniae. Kind of experiment: Antimicrobial activity against carbapenem-resistant KPC-2 producing Klebsiella pneumoniae 475 ST 277 expressing beta-lactamase SHV-27, CTX-M-15 and OXA-4 by agar dilution method in presence of beta-lactamase inhibitor Tazobactam. In kind it is functional.
Experiment [10] concerns Klebsiella pneumoniae. Kind of experiment: Antimicrobial activity against KPC-3 producing Klebsiella pneumoniae 557 transformant by agar dilution method in presence of beta-lactamase inhibitor Tazobactam. The format is functional.
Experiment [11] relates to Klebsiella pneumoniae. Nature of the experiment: Antimicrobial activity against KPC-3 producing Klebsiella pneumoniae 557 ST 258 expressing beta-lactamase TEM-1 by agar dilution method in presence of beta-lactamase inhibitor Tazobactam.
The subject of experiment [12] is Klebsiella pneumoniae. Kind of experiment: Antimicrobial activity against carbapenem-resistant KPC-2 producing Klebsiella pneumoniae 531 ST 376 expressing beta-lactamase SHV-1 by agar dilution method in presence of beta-lactamase inhibitor Tazobactam. In kind it is functional.
Experiment [13] relates to Klebsiella pneumoniae. Kind of experiment: Antimicrobial activity against carbapenem-resistant KPC-2 producing Klebsiella pneumoniae 475transformant by agar dilution method in presence of beta-lactamase inhibitor Tazobactam. In kind it is functional.
Experiment [14] deals with Klebsiella pneumoniae. Nature of the experiment: Antimicrobial activity against carbapenem-resistant KPC-2 producing Klebsiella pneumoniae 523transformant by agar dilution method in presence of beta-lactamase inhibitor Tazobactam. The format is functional.
In experiment [15] the test system is Klebsiella pneumoniae. Nature of the experiment: Antimicrobial activity against carbapenem-resistant KPC-2 producing Klebsiella pneumoniae 525 transformant by agar dilution method in presence of beta-lactamase inhibitor Tazobactam. In kind it is functional.
The test system of experiment [16] is Klebsiella pneumoniae. Kind of experiment: Antimicrobial activity against carbapenem-resistant KPC-2 producing Klebsiella pneumoniae 588 ST 340 expressing beta-lactamase TEM-1 and SHV-11 by agar dilution method in presence of beta-lactamase inhibitor Tazobactam. The format is functional.
The test system of experiment [17] is Klebsiella pneumoniae. Kind of experiment: Antimicrobial activity against carbapenem-resistant KPC-2 producing Klebsiella pneumoniae 588 transformant by agar dilution method in presence of beta-lactamase inhibitor Tazobactam. In kind it is functional.
For experiment [18], the system named is Klebsiella pneumoniae. Kind of experiment: Antimicrobial activity against carbapenem-resistant KPC-2 producing Klebsiella pneumoniae 365 ST 376 expressing beta-lactamase SHV-1, CTX-M-15 and OXA-4 by agar dilution method in presence of beta-lactamase inhibitor Tazobactam.
The subject of experiment [19] is Klebsiella pneumoniae. Kind of experiment: Antimicrobial activity against KPC-3 producing Klebsiella pneumoniae 549 ST 327 expressing beta-lactamase TEM-1 and CTX-M-2 by agar dilution method in presence of beta-lactamase inhibitor Tazobactam. The format is functional.
Experiment [20] concerns Klebsiella pneumoniae. Kind of experiment: Antimicrobial activity against carbapenem-resistant KPC-2 producing Klebsiella pneumoniae 531 transformant by agar dilution method in presence of beta-lactamase inhibitor Tazobactam. In kind it is functional.

For `CCN1CCN(C(=O)N[C@@H](C(=O)N[C@@H]2C(=O)N3[C@@H]2SC(C)(C)[C@@H]3C(=O)O)c2ccccc2)C(=O)C1=O` [PIPERACILLIN], the MIC is over 128 mg/L with Klebsiella pneumoniae [1]; under 4 mg/L in the experiment on Escherichia coli; over 128 mg/L in the experiment on Klebsiella pneumoniae [2]; over 128 mg/L with Klebsiella pneumoniae [3]; 64 mg/L in the experiment on Klebsiella pneumoniae [4]; 128 mg/L with Klebsiella pneumoniae [5]. Moreover, the MIC was over 128 mg/L in the experiment on Klebsiella pneumoniae [6]; over 128 mg/L in the experiment on Klebsiella pneumoniae [7]; over 128 mg/L in the experiment on Klebsiella pneumoniae [8]; over 128 mg/L in the experiment with Klebsiella pneumoniae [9]; 64 mg/L with Klebsiella pneumoniae [10]; over 320 mg/L in the experiment on Klebsiella pneumoniae [11]. The MIC was over 128 mg/L with Klebsiella pneumoniae [12]; over 128 mg/L in the experiment with Klebsiella pneumoniae [13]; over 128 mg/L in the experiment with Klebsiella pneumoniae [14]; 64 mg/L with Klebsiella pneumoniae [15]; over 128 mg/L in the experiment with Klebsiella pneumoniae [16]; over 128 mg/L in the experiment on Klebsiella pneumoniae [17]. In addition, the figures for the MIC with Klebsiella pneumoniae [18], in the experiment with Klebsiella pneumoniae [19] and in the experiment with Klebsiella pneumoniae [20] were over 128 mg/L, over 320 mg/L and 64 mg/L, respectively.
